Patent US12252491B2, “IL-17A inhibitors” (Eli Lilly and Company, priority 2019, dated 2025)

Assays:
[1] = Mouse oral bioavailability; assay type: in vivo; conditions: whole blood (dried blood spot), male mice, IV bolus 1 mg/kg vs oral 3 mg/kg, 8-hour AUC, read-out: % F (mouse)
Experimental: Oral bioavailability (% F) for compounds of the invention may be determined in mice by determination of an 8-hour blood plasma AUC (nM*hr) following intravenous and oral administration performed essentially as follows. Male mice (n=3) are administered compound via intravenous (IV) bolus (1 mg/kg) or orally (3 mg/kg). For intravenous administration, a vehicle of 20% w/v capsitol in NaPO4 buffer (25 mM) adjusted to pH 2 in a volume of 5 mL/kg is used. For oral administration, a vehicle of HEC/P80/AF/PW (probe sonicated to afford a homogeneous suspension) in a volume of 10 mL/kg is used. Blood is sampled by saphenous bleeding using K2 EDTA as anticoagulant. Approximately 20 μL of blood (or enough for 1 spot) is collected via a capillary tube and transferred to a card as a dry blood spot. Cards are allowed to dry for at least 2 hours before shipping for analysis. Blood concentration of compounds for each mouse is measured by liquid chromatography/tandem mass spectrometry at time points of 0.08 (IV only), 0.25, 0.5, 0.75, 2, 4, and 8 hours. Oral bioavailability (% F) is determined via the following equation: [% F=(AUC/Dose)PO/(AUC/Dose)IV].

[2] = biological target: binding of IL-17A to IL-17RA (Homo sapiens (Human), UniProt Q16552); test: IL-17A:IL-17RA AlphaLISA
Experimental: The ability of compounds to inhibit the binding of IL-17A to IL-17RA may be assessed with an AlphaLISA assay.
To assay the compounds of the present invention, 0.1 μL of a test compound stock is serially diluted in 100% DMSO using an Echo Acoustic Liquid Handler (LabCyte Sunnydale, Calif.) in 384 well proxiplates (Perkin Elmer). A 5 μL addition of IL-17RA-FLAG is added to the plate, followed by the addition of 5 μL Avi-tagged IL-17A-His to provide a final concentration of 2 nM of IL-17RA and IL-17A, respectively. The assay is carried out in 20 mM HEPES, 150 mM NaCl, 0.05% Tween-20, 0.1% Human Serum Albumin, pH 7 and 1% DMSO. The assay mixture is allowed to incubate at room temperature for 2 hours. After the 2 hour incubation, 10 μL of streptavidin donor beads (20 μg/ml final) and anti-FLAG acceptor beads (20 μg/ml final) are added to the plate. The plate is allowed to incubate for one hour at room temp, then is read on the Envision (Perkin Elmer). The relative IC50 values are determined using a four parameter fit as shown in equation 1. In this equation, bottom and top are defined as the plateaus of the curve, and H is the Hill Slope.

human IL-17A = human IL-17A (Homo sapiens (Human), UniProt Q16552)
Sequence of human IL-17A (Q16552 20-155): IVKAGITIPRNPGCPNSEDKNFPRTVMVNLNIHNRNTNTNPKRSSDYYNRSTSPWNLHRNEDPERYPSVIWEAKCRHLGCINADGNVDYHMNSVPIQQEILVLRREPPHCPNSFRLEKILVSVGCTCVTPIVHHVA
Experimental: The ability of compounds to neutralize the activity of IL-17A may be assessed with a cell-based human IL-17A neutralization assay conducted essentially as follows. […] After 48 hours, CXCL1/GROα in the culture media is measured using a commercial ELISA kit (#DY275; R&D Systems). Medium alone treatments are included in every experiment to assess the basal levels of CXCL1/GROα. Percent inhibition is calculated using the following equation:

Sequence of binding of IL-17A to IL-17RA (Q16552 other isoform, or with tags, fused parts or gaps): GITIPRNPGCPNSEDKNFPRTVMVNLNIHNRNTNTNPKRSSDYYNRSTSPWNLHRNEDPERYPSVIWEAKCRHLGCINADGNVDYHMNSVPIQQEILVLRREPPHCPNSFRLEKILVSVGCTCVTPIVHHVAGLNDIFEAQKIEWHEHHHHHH

Compound | bioavailability [1] | IC50 [2] | IC50 (human IL-17A)
CCc1nocc1C(=O)N[C@H](c1cn2ncc(CN3C[C@@H](C(F)(F)F)NC3=O)cc2n1)C1CCC(F)(F)CC1 [Example 2, N—[(S)-(4,4-Difluorocyclohexyl)-[7-[[(4S)-2-oxo-4-(trifluoromethyl)imidazolidin-1-yl]methyl]imidazo[1,2-b]pyridazin-2-yl]methyl]-3-ethyl-isoxazole-4-carboxamide] | 28% | 15.2 ± 2.5 nM | 53.3 ± 26.4 nM
O=C(N[C@H](c1cn2ncc(CN3C[C@@H](C(F)(F)F)NC3=O)cc2n1)C1CCC(F)(F)CC1)c1nonc1C(F)F [Example 18, N—[(S)-(4,4-Difluorocyclohexyl)-[7-[[(4S)-2-oxo-4-(trifluoromethyl)imidazolidin-1-yl]methyl]imidazo[1,2-b]pyridazin-2-yl]methyl]-4-(difluoromethyl)-1,2,5-oxadiazole-3-carboxamide] | – | < 9.45 nM | 22.7 nM
Cc1nonc1C(=O)N[C@H](c1cn2ncc(CN3C[C@@H](C(F)(F)F)NC3=O)cc2n1)C1CCC(F)(F)CC1 [Example 6, N—[(S)-(4,4-Difluorocyclohexyl)-[7-[[(4S)-2-oxo-4-(trifluoromethyl)imidazolidin-1-yl]methyl]imidazo[1,2-b]pyridazin-2-yl]methyl]-4-methyl-1,2,5-oxadiazole-3-carboxamide] | 75% | < 9.45 nM | 94.2 nM
CC(C)(F)c1nocc1C(=O)N[C@H](c1cn2ncc(CN3C[C@@H](C(F)(F)F)NC3=O)cc2n1)C1CCC(F)(F)CC1 [Example 15, N—[(S)-(4,4-Difluorocyclohexyl)-[7-[[(4S)-2-oxo-4-(trifluoromethyl)imidazolidin-1-yl]methyl]imidazo[1,2-b]pyridazin-2-yl]methyl]-3-(1-fluoro-1-methyl-ethyl)isoxazole-4-carboxamide] | – | 51.9 nM | 82.9 nM
O=C(N[C@H](c1cn2ncc(CN3C[C@@H](C(F)(F)F)NC3=O)cc2n1)C1CCC(F)(F)CC1)c1nonc1CC(F)(F)F [Example 23, N—[(S)-(4,4-difluorocyclohexyl)-[7-[[(4S)-2-oxo-4-(trifluoromethyl)imidazolidin-1-yl]methyl]imidazo[1,2-b]pyridazin-2-yl]methyl]-4-(2,2,2-trifluoroethyl)-1,2,5-oxadiazole-3-carboxamide] | – | < 9.45 nM | 14.9 nM
COc1nonc1C(=O)N[C@H](c1cn2ncc(CN3C[C@@H](C(F)(F)F)NC3=O)cc2n1)C1CCC(F)(F)CC1 [Example 22, N—[(S)-(4,4-Difluorocyclohexyl)-[7-[[(4S)-2-oxo-4-(trifluoromethyl)imidazolidin-1-yl]methyl]imidazo[1,2-b]pyridazin-2-yl]methyl]-4-methoxy-1,2,5-oxadiazole-3-carboxamide] | – | 11.4 nM | 83.4 nM
O=C(N[C@H](c1cn2ncc(CN3C[C@@H](C(F)(F)F)NC3=O)cc2n1)C1CCC(F)(F)CC1)c1conc1CCF [Example 9, N—[(S)-(4,4-Difluorocyclohexyl)-[7-[[(4S)-2-oxo-4-(trifluoromethyl)imidazolidin-1-yl]methyl]imidazo[1,2-b]pyridazin-2-yl]methyl]-3-(2-fluoroethyl)isoxazole-4-carboxamide] | 12% | 10.6 nM | 46.5 nM
CCc1nonc1C(=O)N[C@H](c1cn2ncc(CN3C[C@@H](C(F)(F)F)NC3=O)cc2n1)C1CCC(F)(F)CC1 [Example 17, N—[(S)-(4,4-Difluorocyclohexyl)-[7-[[(4S)-2-oxo-4-(trifluoromethyl)imidazolidin-1-yl]methyl]imidazo[1,2-b]pyridazin-2-yl]methyl]-4-ethyl-1,2,5-oxadiazole-3-carboxamide] | – | < 9.45 nM | 15.9 nM
O=C(N[C@H](c1cn2ncc(CN3C[C@@H](C(F)(F)F)NC3=O)cc2n1)C1CCC(F)(F)CC1)c1nonc1C1CC1 [Example 19, 4-Cyclopropyl-N—[(S)-(4,4-difluorocyclohexyl)-[7-[[(4S)-2-oxo-4-(trifluoromethyl)imidazolidin-1-yl]methyl]imidazo[1,2-b]pyridazin-2-yl]methyl]-1,2,5-oxadiazole-3-carboxamide] | 47% | – | –
CC(C)c1nocc1C(=O)N[C@H](c1cn2ncc(CN3C[C@@H](C(F)(F)F)NC3=O)cc2n1)C1CCC(F)(F)CC1 [Example 16, N—[(S)-(4,4-Difluorocyclohexyl)-[7-[[(4S)-2-oxo-4-(trifluoromethyl)imidazolidin-1-yl]methyl]imidazo[1,2-b]pyridazin-2-yl]methyl]-3-isopropyl-isoxazole-4-carboxamide] | – | 19.3 nM | 10.8 nM
O=C(N[C@H](c1cn2ncc(CN3C[C@@H](C(F)(F)F)NC3=O)cc2n1)C1CCC(F)(F)CC1)c1conc1C1CC1 [Example 1, 3-Cyclopropyl-N—[(S)-(4,4-difluorocyclohexyl)-[7-[[(4S)-2-oxo-4-(trifluoromethyl)imidazolidin-1-yl]methyl]imidazo[1,2-b]pyridazin-2-yl]methyl]isoxazole-4-carboxamide] | 34% | 15.7 ± 7 nM | 51.6 ± 23.5 nM
O=C(N[C@H](c1cn2ncc(CN3C[C@@H](C(F)(F)F)NC3=O)cc2n1)C1CCC(F)(F)CC1)c1conc1C1CC(F)(F)C1 [Example 10, 3-(3,3-Difluorocyclobutyl)-N—[(S)-(4,4-difluorocyclohexyl)-[7-[[(4S)-2-oxo-4-(trifluoromethyl)imidazolidin-1-yl]methyl]imidazo[1,2-b]pyridazin-2-yl]methyl]isoxazole-4-carboxamide] | – | 47 nM | 48.9 nM
O=C(N[C@H](c1cn2ncc(CN3C[C@@H](C(F)(F)F)NC3=O)cc2n1)C1CCC(F)(F)CC1)c1conc1C(F)F [Example 4, N—[(S)-(4,4-Difluorocyclohexyl)-[7-[[(4S)-2-oxo-4-(trifluoromethyl)imidazolidin-1-yl]methyl]imidazo[1,2-b]pyridazin-2-yl]methyl]-3-(difluoromethyl)isoxazole-4-carboxamide] | 59% | 13 ± 2 nM | 93.7 nM
O=C(N[C@H](c1cn2ncc(CN3C[C@@H](C(F)(F)F)NC3=O)cc2n1)C1CCC(F)(F)CC1)c1conc1C(F)(F)F [Example 11, N—[(S)-(4,4-Difluorocyclohexyl)-[7-[[(4S)-2-oxo-4-(trifluoromethyl)imidazolidin-1-yl]methyl]imidazo[1,2-b]pyridazin-2-yl]methyl]-3-(trifluoromethyl)isoxazole-4-carboxamide] | 55% | < 9.45 nM | 148 nM
CC(F)(F)c1nocc1C(=O)N[C@H](c1cn2ncc(CN3C[C@@H](C(F)(F)F)NC3=O)cc2n1)C1CCC(F)(F)CC1 [Example 5, N—[(S)-(4,4-Difluorocyclohexyl)-[7-[[(4S)-2-oxo-4-(trifluoromethyl)imidazolidin-1-yl]methyl]imidazo[1,2-b]pyridazin-2-yl]methyl]-3-(1,1-difluoroethyl)isoxazole-4-carboxamide] | 49% | 20 nM | 104 nM
O=C(N[C@H](c1cn2ncc(CN3C[C@@H](C(F)(F)F)NC3=O)cc2n1)C1CCC(F)(F)CC1)c1conc1CC(F)F [Example 8, N—[(S)-(4,4-Difluorocyclohexyl)-[7-[[(4S)-2-oxo-4-(trifluoromethyl)imidazolidin-1-yl]methyl]imidazo[1,2-b]pyridazin-2-yl]methyl]-3-(2,2-difluoroethyl)isoxazole-4-carboxamide] | – | 15.5 nM | 52.4 nM
O=C(N[C@H](c1cn2ncc(CN3C[C@@H](C(F)(F)F)NC3=O)cc2n1)C1CCC(F)(F)CC1)c1conc1C1(F)CC1 [Example 12, N—[(S)-(4,4-Difluorocyclohexyl)-[7-[[(4S)-2-oxo-4-(trifluoromethyl)imidazolidin-1-yl]methyl]imidazo[1,2-b]pyridazin-2-yl]methyl]-3-(1-fluorocyclopropyl)isoxazole-4-carboxamide] | – | 18.1 nM | 107 nM
O=C(N[C@H](c1cn2ncc(CN3C[C@@H](C(F)(F)F)NC3=O)cc2n1)C1CCC(F)(F)CC1)c1conc1C(F)(F)C1CC1 [Example 13, 3-[Cyclopropyl(difluoro)methyl]-N—[(S)-(4,4-difluorocyclohexyl)-[7-[[(4S)-2-oxo-4-(trifluoromethyl)imidazolidin-1-yl]methyl]imidazo[1,2-b]pyridazin-2-yl]methyl]isoxazole-4-carboxamide] | – | 47.1 nM | 53.1 nM
CC1(c2nocc2C(=O)N[C@H](c2cn3ncc(CN4C[C@@H](C(F)(F)F)NC4=O)cc3n2)C2CCC(F)(F)CC2)CC1 [Example 14, N—[(S)-(4,4-Difluorocyclohexyl)-[7-[[(4S)-2-oxo-4-(trifluoromethyl)imidazolidin-1-yl]methyl]imidazo[1,2-b]pyridazin-2-yl]methyl]-3-(1-methylcyclopropyl)isoxazole-4-carboxamide] | – | 36.1 nM | 33.3 nM
